O=c1cc(-c2ccccc2)oc2c1ccc1ccccc12
Details | solubility (mole fraction)
in 1,4-dioxane, 288.15 K | 0.0128
in 1,4-dioxane, 293.15 K | 0.0158
in 1,4-dioxane, 298.15 K | 0.019
in 1,4-dioxane, 303.15 K | 0.0223
in 1,4-dioxane, 308.15 K | 0.0259
in 1,4-dioxane, 313.15 K | 0.0307
in 1,4-dioxane, 318.15 K | 0.0363
in acetone, 273.15 K | 0.00209
in acetone, 278.15 K | 0.00273
in acetone, 283.15 K | 0.00326
in acetone, 288.15 K | 0.00392
in acetone, 293.15 K | 0.00466
in acetone, 298.15 K | 0.00546
in acetone, 303.15 K | 0.00636
in acetone, 308.15 K | 0.00736
in acetone, 313.15 K | 0.00846
in acetone, 318.15 K | 0.00963
in acetonitrile, 273.15 K | 0.000628
in acetonitrile, 278.15 K | 0.000846
in acetonitrile, 283.15 K | 0.00105
in acetonitrile, 288.15 K | 0.00126
in acetonitrile, 293.15 K | 0.0015
in acetonitrile, 298.15 K | 0.00176
in acetonitrile, 303.15 K | 0.00204
in acetonitrile, 308.15 K | 0.00242
in acetonitrile, 313.15 K | 0.00291
in acetonitrile, 318.15 K | 0.0034
in cyclohexane, 283.15 K | 0.000138
in cyclohexane, 288.15 K | 0.000189
in cyclohexane, 293.15 K | 0.000246
in cyclohexane, 298.15 K | 0.00031
in cyclohexane, 303.15 K | 0.000391
in cyclohexane, 308.15 K | 0.000477
in cyclohexane, 313.15 K | 0.000573
in cyclohexane, 318.15 K | 0.000694
in ethanol, 273.2 K | 0.000306
in ethanol, 278.2 K | 0.000475
in ethanol, 283.2 K | 0.000677
in ethanol, 288.2 K | 0.000892
in ethanol, 293.2 K | 0.00113
in ethanol, 298.2 K | 0.00136
in ethanol, 303.2 K | 0.00163
in ethanol, 308.2 K | 0.00197
in ethanol, 313.2 K | 0.00235
in ethanol, 318.2 K | 0.00277
in ethyl acetate, 273.15 K | 0.00271
in ethyl acetate, 278.15 K | 0.00331
in ethyl acetate, 283.15 K | 0.00391
in ethyl acetate, 288.15 K | 0.00461
in ethyl acetate, 293.15 K | 0.00532
in ethyl acetate, 298.15 K | 0.00614
in ethyl acetate, 303.15 K | 0.0071
in ethyl acetate, 308.15 K | 0.00824
in ethyl acetate, 313.15 K | 0.00948
in ethyl acetate, 318.15 K | 0.0109
in isobutanol, 273.15 K | 0.000861
in isobutanol, 278.15 K | 0.00118
in isobutanol, 283.15 K | 0.00153
in isobutanol, 288.15 K | 0.0019
in isobutanol, 293.15 K | 0.00231
in isobutanol, 298.15 K | 0.00279
in isobutanol, 303.15 K | 0.00331
in isobutanol, 308.15 K | 0.00396
in isobutanol, 313.15 K | 0.00475
in isobutanol, 318.15 K | 0.00554
in isopropanol, 273.2 K | 0.000474
in isopropanol, 278.2 K | 0.000676
in isopropanol, 283.2 K | 0.00085
in isopropanol, 288.2 K | 0.00105
in isopropanol, 293.2 K | 0.00127
in isopropanol, 298.2 K | 0.00153
in isopropanol, 303.2 K | 0.00181
in isopropanol, 308.2 K | 0.0022
in isopropanol, 313.2 K | 0.00265
in isopropanol, 318.2 K | 0.00313
in methanol, 273.2 K | 0.000712
in methanol, 278.2 K | 0.000934
in methanol, 283.2 K | 0.00119
in methanol, 288.2 K | 0.00144
in methanol, 293.2 K | 0.00171
in methanol, 298.2 K | 0.00203
in methanol, 303.2 K | 0.00238
in methanol, 308.2 K | 0.00277
in methanol, 313.2 K | 0.00335
in methanol, 318.2 K | 0.00398
in n-butanol, 273.15 K | 0.00106
in n-butanol, 278.15 K | 0.00149
in n-butanol, 283.15 K | 0.00194
in n-butanol, 288.15 K | 0.00244
in n-butanol, 293.15 K | 0.00291
in n-butanol, 298.15 K | 0.00346
in n-butanol, 303.15 K | 0.00412
in n-butanol, 308.15 K | 0.00487
in n-butanol, 313.15 K | 0.00575
in n-butanol, 318.15 K | 0.00673
in n-propanol, 273.2 K | 0.000773
in n-propanol, 278.2 K | 0.00105
in n-propanol, 283.2 K | 0.0014
in n-propanol, 288.2 K | 0.00178
in n-propanol, 293.2 K | 0.00218
in n-propanol, 298.2 K | 0.00261
in n-propanol, 303.2 K | 0.0031
in n-propanol, 308.2 K | 0.00364
in n-propanol, 313.2 K | 0.00424
in n-propanol, 318.2 K | 0.005
in toluene, 273.15 K | 0.00423
in toluene, 278.15 K | 0.00517
in toluene, 283.15 K | 0.00623
in toluene, 288.15 K | 0.00735
in toluene, 293.15 K | 0.00862
in toluene, 298.15 K | 0.01
in toluene, 303.15 K | 0.0116
in toluene, 308.15 K | 0.0136
in toluene, 313.15 K | 0.0155
in toluene, 318.15 K | 0.0178

— BigSolDB 2.1
